Patent US20090069302A1 (SMITHKLINE BEECHAM CORPORATION, priority 2006, published 2009)

Molecular target: T1, AXOR109 (Homo sapiens, UniProt Q8TDU6)
T1 construct: expressed in transfected cells; host or cells: melanophore cells, transfected by electroporation
T1 sequence (Q8TDU6 1-330): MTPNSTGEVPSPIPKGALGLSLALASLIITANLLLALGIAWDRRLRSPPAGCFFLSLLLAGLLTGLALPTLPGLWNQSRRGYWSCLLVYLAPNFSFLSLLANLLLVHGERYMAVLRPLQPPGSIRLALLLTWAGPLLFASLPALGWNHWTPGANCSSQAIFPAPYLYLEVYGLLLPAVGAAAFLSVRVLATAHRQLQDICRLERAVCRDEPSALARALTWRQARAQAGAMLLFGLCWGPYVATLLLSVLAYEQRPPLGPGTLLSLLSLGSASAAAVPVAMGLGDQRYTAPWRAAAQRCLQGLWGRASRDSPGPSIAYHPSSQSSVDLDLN
Experiment: Human AXOR109/Melanophore Assay
Type: cell-based
Conditions: melanophore assay; for Emax: 1 h, normalized to alpha-MSH system max; for EC50: AXOR109 transfected melanophores
Description: AXOR109 is a Gs-coupled receptor and therefore increases intracellular cAMP leading to melanosome dispersion. Compounds of the present invention were characterized in a melanophore assay as described in Jayawickreme C K, et al., Current Protocols in Pharmacology (2005) 12.9.1-12.9.16. Briefly, melanophore cells are transfected by electroporation with AXOR109 expressing cDNA. Cells are then plated in 384 well clear bottom plates at 8E3 cells per well in 50 μl of conditioned fibroblast media (CFM). Compounds to be tested are serially diluted 3-fold in DMSO and further diluted 1:100 with melanophore assay buffer (MAB)+10 nM Melatonin to yield 11 point concentration response curves. Following 2 hour incubation with MAB+1% DMSO+10 nM Melatonin, initial transmittance is read on a TwisterII/Spectramax plate reader. Compounds are then added to the cells and incubated for 1 hour, and final transmittance is read as before. Results are compared to vehicle (MAB+1% DMSO+10 nM Melatonin) and to a positive control (MAB+1% DMSO+10 nM Melatonin+200 nM alpha-MSH). Data are calculated for each well as follows: 1-(Transmitance-final/Transmitance-initial). Each well result is then normalized to alpha-MSH, the system max control for Gs/Gq coupled receptors using the following equation: (ObjX−Control1)/(Control2−Control1)*100. The percent system max is used to generate the pEC50 using the equation: y=((Vmax*x̂n)/(K̂n+x̂n))+Y2. Acceptable Z-prime values should be >0.4. Compounds of the present invention have a pEC50≧5.0 in the above described assay.

Compound | Emax | EC50
COc1ccc(S(=O)(=O)N2CCN(S(=O)(=O)c3ccc(OC)c(OC)c3)[C@@H](C)C2)cc1OC [Example 19, (2S)-1,4-bis{[3,4-bis(methyloxy)phenyl]sulfonyl}-2-methylpiperazine] | 76 to 100% | 1260 to 10000 nM
COc1ccc(S(=O)(=O)N2CCCN(S(=O)(=O)c3ccc4c(c3)OCCO4)CC2)cc1OC [Example 8, 1-{[3,4-bis(methyloxy)phenyl]sulfonyl}-4-(2,3-dihydro-1,4-benzodioxin-6-ylsulfonyl)hexahydro-1H-1,4-diazepine] | 51 to 75% | 1260 to 10000 nM
CCN(C1CCCN(S(=O)(=O)c2ccc(OC)c(OC)c2)C1)S(=O)(=O)c1ccc(OC)c(OC)c1 (stereo not shown) [Example 93, N-(1-{[3,4-bis(methyloxy)phenyl]sulfonyl}-3-piperidinyl)-N-ethyl-3,4-bis(methyloxy)benzenesulfonamide] | 51 to 75% | 1260 to 10000 nM
COc1ccc(S(=O)(=O)N(C)CCN(C)S(=O)(=O)c2ccc3c(c2)n(C)c(=O)n3C)cc1OC [Example 65, N-methyl-N-{2-[{[3,4-bis(methyloxy)phenyl]sulfonyl}(methyl)amino]ethyl}-1,3-dimethyl-2-oxo-2,3-dihydro-1H-benzimidazole-5-sulfonamide] | 51 to 75% | 1260 to 10000 nM
COc1ccc(S(=O)(=O)N2CC[C@H](N(C)S(=O)(=O)c3ccc(OC)c(OC)c3)C2)cc1OC (stereo in doubt) [Example 84] | 51 to 75% | 1260 to 10000 nM
COc1ccc(S(=O)(=O)N2CCN(S(=O)(=O)c3ccc(OC)c(OC)c3)C(=O)C2)cc1OC [Example 76, 1,4-bis{[3,4-bis(methyloxy)phenyl]sulfonyl}-2-piperazinone] | 51 to 75% | 1260 to 10000 nM
COc1ccc(S(=O)(=O)N2CCCN(S(=O)(=O)c3ccc(OC)c(OC)c3)C(C)C2)cc1OC (stereo not shown) [Example 49, 1,4-bis{[3,4-bis(methyloxy)phenyl]sulfonyl}-2-methylhexahydro-1H-1,4-diazepine] | 51 to 75% | 1260 to 10000 nM
COc1ccc(S(=O)(=O)N2CCN(S(=O)(=O)c3c(C)cccc3Cl)CC2)cc1OC [Example 5, 1-{[3,4-bis(methyloxy)phenyl]sulfonyl}-4-[(2-chloro-6-methylphenyl)sulfonyl]piperazine] | 76 to 100% | 1260 to 10000 nM
COc1ccc(S(=O)(=O)N(C)CCN(C)S(=O)(=O)c2ccc3c(c2)OCCO3)cc1OC [Example 13, N-{2-[{[3,4-bis(methyloxy)phenyl]sulfonyl}(methyl)amino]ethyl}-N-methyl-2,3-dihydro-1,4-benzodioxin-6-sulfonamide] | 51 to 75% | 1260 to 10000 nM
COc1ccc(S(=O)(=O)N2CC(C)N(S(=O)(=O)c3ccc(OC)c(OC)c3)C(C)C2C)cc1OC (stereo not shown) [Example 39, 1,4-bis{[3,4-bis(methyloxy)phenyl]sulfonyl}-2,3,5-trimethylpiperazine] | 0 to 50% | 1260 to 10000 nM
COc1ccc(S(=O)(=O)N2CCN(S(=O)(=O)c3ccc(OC)c(OC)c3)C(C3CCCCC3)C2)cc1OC (stereo not shown) [Example 24, 1,4-bis{[3,4-bis(methyloxy)phenyl]sulfonyl}-2-cyclohexylpiperazine] | 51 to 75% | 1260 to 10000 nM
COc1ccc(S(=O)(=O)N2C[C@H](C)N(S(=O)(=O)c3ccc(OC)c(OC)c3)C[C@@H]2C)cc1F [Example 67, (2S,5S)-1-{[3,4-bis(methyloxy)phenyl]sulfonyl}-4-{[3-fluoro-4-(methyloxy)phenyl]sulfonyl}-2,5-dimethylpiperazine] | – | 126 to 1000 nM
COc1ccc(S(=O)(=O)N[C@@H]2CCN(S(=O)(=O)c3ccc(OC)c(OC)c3)C2)cc1OC [Example 77, N-((3R)-1-{[3,4-bis(methyloxy)phenyl]sulfonyl}-3-pyrrolidinyl)-3,4-bis(methyloxy)benzenesulfonamide] | 76 to 100% | 1260 to 10000 nM
CCc1cc(S(=O)(=O)N2CCCN(S(=O)(=O)c3ccc(OC)c(OC)c3)CC2)ccc1OC [Example 41, 1-{[3,4-bis(methyloxy)phenyl]sulfonyl}-4-{[3-ethyl-4-(methyloxy)phenyl]sulfonyl}hexahydro-1H-1,4-diazepine] | 51 to 75% | 126 to 1000 nM
COc1ccc(S(=O)(=O)N(C)CCN(C)S(=O)(=O)c2ccc3c(c2)OCCCO3)cc1OC [Example 73, N-{2-[{[3,4-bis(methyloxy)phenyl]sulfonyl}(methyl)amino]ethyl}-N-methyl-3,4-dihydro-2H-1,5-benzodioxepin-7-sulfonamide] | 76 to 100% | 1260 to 10000 nM
COc1cccc(S(=O)(=O)N(C)CCN(C)S(=O)(=O)c2ccc(OC)c(OC)c2)c1 [Example 10, N-methyl-N-[2-(methyl{[3-(methyloxy)phenyl]sulfonyl}amino)ethyl]-3,4-bis(methyloxy)benzenesulfonamide] | 76 to 100% | 126 to 1000 nM
COc1ccc(S(=O)(=O)N2CCN(S(=O)(=O)c3ccc(OC)c(OC)c3)C(C)C2)cc1OC (stereo not shown) [Example 29, 1,4-bis{[3,4-bis(methyloxy)phenyl]sulfonyl}-2-methylpiperazine] | 51 to 75% | 126 to 1000 nM

The remaining lines, values ahead:

Emax | EC50 | Compound
76 to 100% | 126 to 1000 nM | CCc1cc(S(=O)(=O)N2CCN(S(=O)(=O)c3ccc(OC)c(OC)c3)CC2)ccc1OC [Example 64, 1-{[3,4-bis(methyloxy)phenyl]sulfonyl}-4-{[3-ethyl-4-(methyloxy)phenyl]sulfonyl}piperazine]
76 to 100% | < 126 nM | CCN([C@@H]1CCN(S(=O)(=O)c2ccc(OC)c(OC)c2)C1)S(=O)(=O)c1ccc(OC)c(OC)c1 [Example 60, N-((3R)-1-{[3,4-bis(methyloxy)phenyl]sulfonyl}-3-pyrrolidinyl)-N-ethyl-3,4-bis(methyloxy)benzenesulfonamide]
76 to 100% | 126 to 1000 nM | CCCN([C@@H]1CCN(S(=O)(=O)c2ccc(OC)c(OC)c2)C1)S(=O)(=O)c1ccc(OC)c(OC)c1 [Example 59, N-((3R)-1-{[3,4-bis(methyloxy)phenyl]sulfonyl}-3-pyrrolidinyl)-3,4-bis(methyloxy)-N-propylbenzenesulfonamide]
0 to 50% | 126 to 1000 nM | COc1ccc(S(=O)(=O)N(C)CCN(C)S(=O)(=O)c2ccc(OC)c(OC)c2)cc1F [Example 11, N-{2-[{[3,4-bis(methyloxy)phenyl]sulfonyl}(methyl)amino]ethyl}-3-fluoro-N-methyl-4-(methyloxy)benzenesulfonamide]
> 100% | 126 to 1000 nM | COc1ccc(S(=O)(=O)N(C[C@H]2CCCN2S(=O)(=O)c2ccc(OC)c(OC)c2)C(C)C)cc1OC [Example 100, N-[((2R)-1-{[3,4-bis(methyloxy)phenyl]sulfonyl}-2-pyrrolidinyl)methyl]-N-(1-methylethyl)-3,4-bis(methyloxy)benzenesulfonamide]
51 to 75% | 126 to 1000 nM | COc1ccc(S(=O)(=O)N2CCN(S(=O)(=O)c3ccc(OC)c(OC)c3)c3ccccc32)cc1OC [Example 83]
76 to 100% | 126 to 1000 nM | COc1ccc(S(=O)(=O)N2CCN(S(=O)(=O)c3ccc(OC)c(OC)c3)C(C)(C)C2)cc1OC [Example 50, 1,4-bis{[3,4-bis(methyloxy)phenyl]sulfonyl}-2,2-dimethylpiperazine]
76 to 100% | 126 to 1000 nM | CCc1cc(S(=O)(=O)N2C[C@H](C)N(S(=O)(=O)c3ccc(OC)c(OC)c3)C[C@@H]2C)ccc1OC [Example 68, (2S,5S)-1-{[3,4-bis(methyloxy)phenyl]sulfonyl}-4-{[3-ethyl-4-(methyloxy)phenyl]sulfonyl}-2,5-dimethylpiperazine]
76 to 100% | < 126 nM | CCN(C[C@H]1CCCN1S(=O)(=O)c1ccc(OC)c(OC)c1)S(=O)(=O)c1ccc(OC)c(OC)c1 [Example 98, N-[((2R)-1-{[3,4-bis(methyloxy)phenyl]sulfonyl}-2-pyrrolidinyl)methyl]-N-ethyl-3,4-bis(methyloxy)benzenesulfonamide]
51 to 75% | 126 to 1000 nM | COc1ccc(S(=O)(=O)N2C[C@@H](C)N(S(=O)(=O)c3ccc(OC)c(OC)c3)[C@@H](C)C2)cc1 [Example 35, 1-{[3,4-bis(methyloxy)phenyl]sulfonyl}-2,6-cis-dimethyl-4-{[4-(methyloxy)phenyl]sulfonyl}piperazine]
51 to 75% | 126 to 1000 nM | COc1ccc(S(=O)(=O)N2CCN(S(=O)(=O)c3ccc(-c4cnco4)cc3)CC2)cc1OC [Example 2, 1-{[3,4-bis(methyloxy)phenyl]sulfonyl}-4-{[4-(1,3-oxazol-5-yl)phenyl]sulfonyl}piperazine]
